Results published in patent US20210253643A1, “HYDROPHOBIC BIOMOLECULE STABILIZING SCAFFOLD PEPTIDES AND METHODS OF MAKING AND USING SAME” (The University of British Columbia, priority 2018, published 2021).
No end group written: not given here.

Key:
[1] = target: T1, photosynthetic bacterial reaction center (BRC) (Cereibacter sphaeroides, UniProt P0C0Y7+P0C0Y8+P0C0Y9); assay: Thermostability of the BRC complex (absorbance at 803 nm after incubation at 65° C.); format: physicochemical, Rhodobacter sphaeroides; details: 0.03% LDAO
T1 construct: placed on H from own knowledge of pIND4-RC1; made in house; host or cells: Rhodobacter sphaeroides RcX (ΔpuhA, ΔpufQBALMX, ΔrshI, ΔppsR), plasmid pIND4-RC1
Experimental: Reconstitution of the BRC in peptidiscs, low lipid nanodiscs, and styrene maleic acid nanoparticles: The purified BRC complex (1 mg/mL) was mixed at a 1:1.8 (μg/μg) ratio with NSPr followed by 10-fold dilution in Buffer A to decrease the LDAO concentration to 0.003%. For formation of low-lipid nanodiscs, the purified BRC complex was instead mixed at a 1:2 (mol/mol) ratio with MSP1D1 before dilution. Alternatively, an equivalent amount of BRC was diluted in Buffer A supplemented with 0.03% LDAO, 0.02% DDM, 0.1% SMA or 0.1% SDS as described. After incubation for 10 minutes on ice, aggregated proteins were removed by centrifugation (13,000×g, 10 min at 4° C.). […]
Absorbance spectroscopy: Absorption spectra were recorded using a Hitachi U-3010 spectrophotometer. A blank measurement was recorded in Buffer A(+0.03% LDAO for detergent purified BRC). Samples were incubated in a PCR thermocycler at the indicated temperature, and then measured at the desired time points in a quartz cuvette at room temperature. […]
The photosynthetic bacterial reaction center (BRC) from Rhodobacter sphaeroides was reconstituted into peptidiscs using NSPr. FIG. 21A illustrates the absorbance scans of the BRC (1 μM) in detergent solution (0.03% LDAO (lauryldimethylamine oxide)) and in peptidisc. Scans were normalized to the value measured at 803 nm (the absorbance peak of the accessory bacteriochlorophylls). […]

[2] = Peptide solubility by turbidity of peptide suspensions at 550 nm; details: for Solubility (/5): Experiment #2, score 1 to 5; for Solubility: Experiment #1, score 1 to 5, turbidity at 550 nm
Experimental: The solubility of the peptides was determined by measuring the turbidity of each of the peptide suspensions at 550 nm. The numbers 1 to 5 were used denote the degree of solubility, where 1 means poor solubility and 5 means high solubility.

[3] = system: membrane proteins MsbA and FhuA; assay: On-gel reconstitution efficiency of membrane proteins; format: biochemical, E. coli; set-up: key: 1 means poor reconstitution; 5 means efficient reconstitution
Experimental: Bands were visualized by Coomassie Blue G250 staining.
(§1) Table 10 summarizes the biophysical, structural and experimental characteristics of the tested NSP peptide variants. […] The number of inter-helix salt bridges formed between the AH1 and AH2 regions for each of the tested amphipathic peptide variants was also determined.

membrane proteins = assay: Competition with equimolar NSPr-FAM during on-gel reconstitution of membrane proteins; format: biochemical; details: 0 no competition, 100 full competition
Experimental: as §1

[4] = Experiment #1, score 1 to 5, on-gel, MsbA and FhuA

Row | Molecule | Solubility (/5) [2] | other results
1 | CCCCCCCCCCCC[N+](C)(C)[O-] [LDAO, lauryldimethylamine oxide] |  | Time to full denaturation of BRC [1]: less than 4 minutes
2 | CC(C)C[C@H](NC(=O)[C@H](CCCCN)NC(=O)[C@H](C)NC(=O)[C@H](Cc1ccccc1)NC(=O)[C@H](Cc1ccc(O)cc1)NC(=O)[C@H](CC(=O)O)NC(=O)[C@H](CCCCN)NC(=O)[C@@H](NC(=O)[C@H](C)NC(=O)[C@H](CCC(=O)O)NC(=O)[C@H](CCCCN)NC(=O)[C@H](CC(C)C)NC(=O)[C@H](CCCCN)NC(=O)[C@H](CCC(=O)O)NC(=O)[C@H](C)NC(=O)[C@H](C)NC(=O)[C@@H]1CCCN1C(=O)[C@H](CC(=O)O)NC(=O)[C@H](Cc1c[nH]c2ccccc12)NC(=O)[C@H](Cc1ccccc1)NC(=O)[C@H](CCCCN)NC(=O)[C@H](C)NC(=O)[C@H](Cc1ccccc1)NC(=O)[C@H](Cc1ccc(O)cc1)NC(=O)[C@H](CC(=O)O)NC(=O)[C@H](CCCCN)NC(=O)[C@@H](NC(=O)[C@H](C)NC(=O)[C@H](CCC(=O)O)NC(=O)[C@H](CCCCN)NC(=O)[C@H](Cc1ccccc1)NC(=O)[C@H](CCCCN)NC(=O)[C@H](CCC(=O)O)NC(=O)[C@H](C)NC(=O)[C@H](Cc1ccccc1)NC(=O)[C@H](Cc1c[nH]cn1)NC(=O)[C@H](Cc1c[nH]cn1)NC(=O)[C@H](Cc1c[nH]cn1)NC(=O)[C@H](Cc1c[nH]cn1)NC(=O)[C@H](Cc1c[nH]cn1)NC(=O)[C@@H](N)Cc1c[nH]cn1)C(C)C)C(C)C)C(=O)N[C@@H](Cc1c[nH]c2ccccc12)C(=O)N[C@@H](CC(=O)O)C(=O)O [NSPr-6xHis, HHHHHH FAEKFKEAVKDYFAKFWD P AAEKLKEAVKDYFAKLWD] | 3 /5 | 
3 | CC(C)C[C@H](NC(=O)[C@H](CCCCN)NC(=O)[C@H](C)NC(=O)[C@H](Cc1ccccc1)NC(=O)[C@H](Cc1ccc(O)cc1)NC(=O)[C@H](CC(=O)O)NC(=O)[C@H](CCCCN)NC(=O)[C@@H](NC(=O)[C@H](C)NC(=O)[C@H](CCC(=O)O)NC(=O)[C@H](CCCCN)NC(=O)[C@H](CC(C)C)NC(=O)[C@H](CCCCN)NC(=O)[C@H](CCC(=O)O)NC(=O)[C@H](C)NC(=O)[C@H](C)NC(=O)[C@@H]1CCCN1C(=O)[C@H](CC(=O)O)NC(=O)[C@H](Cc1c[nH]c2ccccc12)NC(=O)[C@H](Cc1ccccc1)NC(=O)[C@H](CCCCN)NC(=O)[C@H](C)NC(=O)[C@H](Cc1ccccc1)NC(=O)[C@H](Cc1ccc(O)cc1)NC(=O)[C@H](CC(=O)O)NC(=O)[C@H](CCCCN)NC(=O)[C@@H](NC(=O)[C@H](C)NC(=O)[C@H](CCC(=O)O)NC(=O)[C@H](CCCCN)NC(=O)[C@H](Cc1ccccc1)NC(=O)[C@H](CCCCN)NC(=O)[C@H](CCC(=O)O)NC(=O)[C@H](C)NC(=O)[C@H](Cc1ccccc1)NC(=O)[C@@H](N)CS)C(C)C)C(C)C)C(=O)N[C@@H](Cc1c[nH]c2ccccc12)C(=O)N[C@@H](CC(=O)O)C(=O)O [NSPr-C, C FAEKFKEAVKDYFAKFWD P AAEKLKEAVKDYFAKLWD] | 5 | Solubility [2]: 5
4 | Ac-DWLKAFYDKVAEKLKEAAPDWFKAFYDKVAEKFKEAF-NH2 [Ac-NSP-NH2, Ac-DWLKAFYDKVAEKLKEAA P DWFKAFYDKVAEKFKEAF-NH2] | 1 | Reconstitution Efficiency (/5) [3, 4]: 2 /5; Reconstitution Efficiency (/5) ([3]; Experiment #2, score 1 to 5): 2 /5; Competition peptide (% NSPr-FAM) (membrane proteins; Experiment #1, equimolar NSPr-FAM and variant): 10%; Competition NSPr-FAM (±10%) (membrane proteins; Experiment #2): 10%; Solubility [2]: 1
5 | DWLKAFYDKVAEKLKEAAPDWFKAFYDKVAEKFKEAF [NSP, DWLKAFYDKVAEKLKEAA P DWFKAFYDKVAEKFKEAF] | 3 /5 | 
6 | FAAKFKEAVKDYFAKFWDPAAEKLAEAVADYFAALWD [3 SB Disruption H2, FAAKFKEAVKDYFAKFWD P AAEKLAEAVADYFAALWD] | 5 | 
7 | FADKFKDAVKEYFAKFWEPAADKLKDAVKEYFAKLWE [Neg Switch, FADKFKDAVKEYFAKFWE P AADKLKDAVKEYFAKLWE] | 4 /5 | 
8 | FAEAFKEAVKDYFAAFWDPAAEKLKEAVKDYFAKLWD [2 SB Disruption, FAEAFKEAVKDYFAAFWD P AAEKLKEAVKDYFAKLWD] | 5 | 
9 | FAEAFKEAVKDYFAKFWDPAAEKLKEAVKDYFAKLWD [1 SB Disruption, FAEAFKEAVKDYFAKFWD P AAEKLKEAVKDYFAKLWD] | 5 | 
10 | FAEKFKEAVKDQFAKFWDPAAEKLKEAVKDQFAKLWD [Tyr/Gln Switch, FAEKFKEAVKDQFAKFWD P AAEKLKEAVKDQFAKLWD] | 4 /5 | 
11 | FAEKFKEAVKDYFAKFWD P AAEKLKEAVKDYFAKLWD-pyrenebutyric acid [NSPr-pyrene] | 5 | Reconstitution Efficiency (/5) [3, 4]: 4 /5; Reconstitution Efficiency (/5) ([3]; Experiment #2, score 1 to 5): 4 /5; Solubility [2]: 5
12 | FAEKFKEAVKDYFAKFWDGAAEKLKEAVKDYFAKLWD [NSPr-G, FAEKFKEAVKDYFAKFWD G AAEKLKEAVKDYFAKLWD] |  | Solubility [2]: 5
13 | FAEKFKEAVKDYFAKFWDGAAEKLKEAVKDYFAKLWD [Pro/Gly Switch, FAEKFKEAVKDYFAKFWD G AAEKLKEAVKDYFAKLWD] | 4 /5 | 
14 | FAEKFKEAVKDYFAKFWDPAAEKFKEAVKDYFAKLFD [Peptide 4F-3F, FAEKFKEAVKDYFAKFWD P AAEKFKEAVKDYFAKLFD] | 4 /5 | 
15 | FAEKFKEAVKDYFAKFWDPAAEKLKEAVKDYFAKFWD [Peptide 4F-2F, FAEKFKEAVKDYFAKFWD P AAEKLKEAVKDYFAKFWD] | 4 /5 | 
16 | FAEKFKEAVKDYFAKFWDPAAEKLKEAVKDYFAKLW [NSPr-36, FAEKFKEAVKDYFAKFWD P AAEKLKEAVKDYFAKLW] | 3 /5 | 
17 | FAEKFKEAVKDYFAKFWDPFAEKFKEAVKDYFAKFWD [Peptide 4F-4F, FAEKFKEAVKDYFAKFWD P FAEKFKEAVKDYFAKFWD] | 4 /5 | 
18 | FAEKFKEAVKDYFAKLWDPAAEKLKEAVKDYFAKLWD [Peptide 3F-1F, FAEKFKEAVKDYFAKLWD P AAEKLKEAVKDYFAKLWD] | 5 | 
19 | FAEKFKEAVKPYFAKFWDPAAEKLKEAVKPYFAKLWD [NSPr-3P, FAEKFKEAVKPYFAKFWD P AAEKLKEAVKPYFAKLWD] | 5 | Solubility [2]: 5
20 | FAEKLKEAVKDYFAKLWDPFAEKLKEAVKDYFAKLWD [Peptide 2F-2F, FAEKLKEAVKDYFAKLWD P FAEKLKEAVKDYFAKLWD] | 4 /5 | 
21 | FAEKLKEAVKDYLAKFWDPAAEKLKEAVKDYFAKLWD [Peptide 2F-1F, FAEKLKEAVKDYLAKFWD P AAEKLKEAVKDYFAKLWD] | 5 | 
22 | FAERFREAVRDYFARFWDPAAERLREAVRDYFARLWD [Pos Switch, FAERFREAVRDYFARFWD P AAERLREAVRDYFARLWD] | 5 | 
23 | FVEKFKEVAKDYFVKFWDPVVEKLKEVAKDYFVKLWD [Ala/Val Switch, FVEKFKEVAKDYFVKFWD P VVEKLKEVAKDYFVKLWD] | 5 | 
24 | Fam-FAEKFKEAVKDYFAKFWD P AAEKLKEAVKDYFAKLWD [NSPr-FAM] |  | Reconstitution Efficiency (/5) [3, 4]: 5; Reconstitution Efficiency (/5) ([3]; Experiment #2, score 1 to 5): 5
25 | WAEKFKEAVKDYWAKFWDPAAEKLKEAVKDYWAKLWD [Phe/Trp Switch, WAEKFKEAVKDYWAKFWD P AAEKLKEAVKDYWAKLWD] | 4 /5 | 
26 | YAEKFKEAVKDYFAKFYDPAAEKLKEAVKDYFAKLWD [Phe/Tyr Switch, YAEKFKEAVKDYFAKFYD P AAEKLKEAVKDYFAKLWD] | 4 /5 | 
